Measured values as given in patent US20220370406A1, “METHOD OF TREATING STIMULANT USE DISORDER USING A COMBINATION OF TOPIRAMATE AND PHENTERMINE” (University of Kentucky Research Foundation, priority 2019, published 2022).

System: participants with cocaine use disorder
Experiment: Medical safety session: subjective effects questionnaires after intranasal cocaine
Format: in vivo, human
Protocol: Participants completed one, single-blind medical safety session to ensure they could tolerate intranasal cocaine. Intranasal cocaine doses (i.e., 0 [placebo], 10, 20, 40 and 80 mg) were administered in ascending order. Placebo (i.e., 0 mg) was administered at 0900 hours. The subjective-effect questionnaires and cardiovascular measures described below were completed 30 minutes before placebo administration (i.e., 0830 hours), immediately following and at 15-minute intervals for 45 minutes. Subsequent cocaine administrations were separated by 45 minutes.

[1] = Cocaine 10 mg, Topiramate (0 mg/day) group
[2] = Cocaine 10 mg, Topiramate (50 mg/day) group
[3] = Cocaine 10 mg, Topiramate (100 mg/day) group
[4] = Cocaine 20 mg, Topiramate (0 mg/day) group
[5] = Cocaine 20 mg, Topiramate (50 mg/day) group
[6] = Cocaine 20 mg, Topiramate (100 mg/day) group

COC(=O)[C@H]1[C@@H](OC(=O)c2ccccc2)C[C@@H]2CC[C@H]1N2C [Cocaine, cocaine]
Adjective Rating Scales Sedative, mean peak effect [1]: 2.0
Adjective Rating Scales Stimulant, mean peak effect [1]: 6.1
Drug-Effect Questionnaire Active-Alert-Energetic, mean peak effect [1]: 17.0
Drug-Effect Questionnaire Any Effect, mean peak effect [1]: 21.5
Drug-Effect Questionnaire Bad Effects, mean peak effect [1]: 4.4
Drug-Effect Questionnaire Euphoric, mean peak effect [1]: 10.1
Drug-Effect Questionnaire Good Effects, mean peak effect [1]: 21.5
Drug-Effect Questionnaire High, mean peak effect [1]: 17.3
Drug-Effect Questionnaire Irregular Heart Beat, mean peak effect [1]: 7.0
Drug-Effect Questionnaire Like Drug, mean peak effect [1]: 25.2
Drug-Effect Questionnaire Nausea-Queasy-Sick, mean peak effect [1]: 3.3
Drug-Effect Questionnaire Nervous-Anxious, mean peak effect [1]: 5.1
Drug-Effect Questionnaire Performance Impaired, mean peak effect [1]: 4.9
Drug-Effect Questionnaire Performance Improved, mean peak effect [1]: 10.7
Drug-Effect Questionnaire Restless, mean peak effect [1]: 7.9
Drug-Effect Questionnaire Rush, mean peak effect [1]: 15.5
Drug-Effect Questionnaire Shaky-Jittery, mean peak effect [1]: 3.9
Drug-Effect Questionnaire Sluggish-Fatigued-Lazy, mean peak effect [1]: 8.1
Drug-Effect Questionnaire Stimulated, mean peak effect [1]: 13.8
Drug-Effect Questionnaire Talkative-Friendly, mean peak effect [1]: 17.0
Drug-Effect Questionnaire Willing to Pay For, mean peak effect [1]: 20.6
Drug-Effect Questionnaire Willing to Take Again, mean peak effect [1]: 26.3
Adjective Rating Scales Sedative, mean peak effect [2]: 3.9
Adjective Rating Scales Stimulant, mean peak effect [2]: 8.7
Drug-Effect Questionnaire Active-Alert-Energetic, mean peak effect [2]: 11.2
Drug-Effect Questionnaire Any Effect, mean peak effect [2]: 7.0
Drug-Effect Questionnaire Bad Effects, mean peak effect [2]: 1.2
Drug-Effect Questionnaire Euphoric, mean peak effect [2]: 3.4
Drug-Effect Questionnaire Good Effects, mean peak effect [2]: 6.4
Drug-Effect Questionnaire High, mean peak effect [2]: 6.1
Drug-Effect Questionnaire Irregular Heart Beat, mean peak effect [2]: 0.6
Drug-Effect Questionnaire Like Drug, mean peak effect [2]: 9.2
Drug-Effect Questionnaire Nausea-Queasy-Sick, mean peak effect [2]: 1.2
Drug-Effect Questionnaire Nervous-Anxious, mean peak effect [2]: 0.3
Drug-Effect Questionnaire Performance Impaired, mean peak effect [2]: 0.9
Drug-Effect Questionnaire Performance Improved, mean peak effect [2]: 3.3
Drug-Effect Questionnaire Restless, mean peak effect [2]: 1.2
Drug-Effect Questionnaire Rush, mean peak effect [2]: 5.9
Drug-Effect Questionnaire Shaky-Jittery, mean peak effect [2]: 1.4
Drug-Effect Questionnaire Sluggish-Fatigued-Lazy, mean peak effect [2]: 5.4
Drug-Effect Questionnaire Stimulated, mean peak effect [2]: 11.9
Drug-Effect Questionnaire Talkative-Friendly, mean peak effect [2]: 4.7
Drug-Effect Questionnaire Willing to Pay For, mean peak effect [2]: 5.4
Drug-Effect Questionnaire Willing to Take Again, mean peak effect [2]: 12.0
Adjective Rating Scales Sedative, mean peak effect [3]: 3.1
Adjective Rating Scales Stimulant, mean peak effect [3]: 10.6
Drug-Effect Questionnaire Active-Alert-Energetic, mean peak effect [3]: 6.4
Drug-Effect Questionnaire Any Effect, mean peak effect [3]: 10.7
Drug-Effect Questionnaire Bad Effects, mean peak effect [3]: 0.2
Drug-Effect Questionnaire Euphoric, mean peak effect [3]: 5.6
Drug-Effect Questionnaire Good Effects, mean peak effect [3]: 14.5
Drug-Effect Questionnaire High, mean peak effect [3]: 7.4
Drug-Effect Questionnaire Irregular Heart Beat, mean peak effect [3]: 2.8
Drug-Effect Questionnaire Like Drug, mean peak effect [3]: 10.1
Drug-Effect Questionnaire Nausea-Queasy-Sick, mean peak effect [3]: 6.8
Drug-Effect Questionnaire Nervous-Anxious, mean peak effect [3]: 0.2
Drug-Effect Questionnaire Performance Impaired, mean peak effect [3]: 0.2
Drug-Effect Questionnaire Performance Improved, mean peak effect [3]: 2.1
Drug-Effect Questionnaire Restless, mean peak effect [3]: 0.7
Drug-Effect Questionnaire Rush, mean peak effect [3]: 6.9
Drug-Effect Questionnaire Shaky-Jittery, mean peak effect [3]: 0.3
Drug-Effect Questionnaire Sluggish-Fatigued-Lazy, mean peak effect [3]: 0.5
Drug-Effect Questionnaire Stimulated, mean peak effect [3]: 7.7
Drug-Effect Questionnaire Talkative-Friendly, mean peak effect [3]: 7.8
Drug-Effect Questionnaire Willing to Pay For, mean peak effect [3]: 8.6
Drug-Effect Questionnaire Willing to Take Again, mean peak effect [3]: 12.6
Adjective Rating Scales Sedative, mean peak effect [4]: 4.6
Adjective Rating Scales Stimulant, mean peak effect [4]: 8.4
Drug-Effect Questionnaire Active-Alert-Energetic, mean peak effect [4]: 23.5
Drug-Effect Questionnaire Any Effect, mean peak effect [4]: 28.6
Drug-Effect Questionnaire Bad Effects, mean peak effect [4]: 4.5
Drug-Effect Questionnaire Euphoric, mean peak effect [4]: 11.5
Drug-Effect Questionnaire Good Effects, mean peak effect [4]: 26.1
Drug-Effect Questionnaire High, mean peak effect [4]: 20.0
Drug-Effect Questionnaire Irregular Heart Beat, mean peak effect [4]: 8.8
Drug-Effect Questionnaire Like Drug, mean peak effect [4]: 27.8
Drug-Effect Questionnaire Nausea-Queasy-Sick, mean peak effect [4]: 2.9
Drug-Effect Questionnaire Nervous-Anxious, mean peak effect [4]: 8.5
Drug-Effect Questionnaire Performance Impaired, mean peak effect [4]: 10.4
Drug-Effect Questionnaire Performance Improved, mean peak effect [4]: 12.0
Drug-Effect Questionnaire Restless, mean peak effect [4]: 8.9
Drug-Effect Questionnaire Rush, mean peak effect [4]: 19.4
Drug-Effect Questionnaire Shaky-Jittery, mean peak effect [4]: 8.8
Drug-Effect Questionnaire Sluggish-Fatigued-Lazy, mean peak effect [4]: 6.8
Drug-Effect Questionnaire Stimulated, mean peak effect [4]: 18.7
Drug-Effect Questionnaire Talkative-Friendly, mean peak effect [4]: 18.6
Drug-Effect Questionnaire Willing to Pay For, mean peak effect [4]: 24.9
Drug-Effect Questionnaire Willing to Take Again, mean peak effect [4]: 32.9
Adjective Rating Scales Sedative, mean peak effect [5]: 2.8
Adjective Rating Scales Stimulant, mean peak effect [5]: 8.6
Drug-Effect Questionnaire Active-Alert-Energetic, mean peak effect [5]: 12.8
Drug-Effect Questionnaire Any Effect, mean peak effect [5]: 9.9
Drug-Effect Questionnaire Bad Effects, mean peak effect [5]: 0.3
Drug-Effect Questionnaire Euphoric, mean peak effect [5]: 12.4
Drug-Effect Questionnaire Good Effects, mean peak effect [5]: 11.2
Drug-Effect Questionnaire High, mean peak effect [5]: 13.1
Drug-Effect Questionnaire Irregular Heart Beat, mean peak effect [5]: 0.6
Drug-Effect Questionnaire Like Drug, mean peak effect [5]: 14.6
Drug-Effect Questionnaire Nausea-Queasy-Sick, mean peak effect [5]: 2.2
Drug-Effect Questionnaire Nervous-Anxious, mean peak effect [5]: 0.0
Drug-Effect Questionnaire Performance Impaired, mean peak effect [5]: 2.4
Drug-Effect Questionnaire Performance Improved, mean peak effect [5]: 5.4
Drug-Effect Questionnaire Restless, mean peak effect [5]: 0.7
Drug-Effect Questionnaire Rush, mean peak effect [5]: 14.1
Drug-Effect Questionnaire Shaky-Jittery, mean peak effect [5]: 1.1
Drug-Effect Questionnaire Sluggish-Fatigued-Lazy, mean peak effect [5]: 0.8
Drug-Effect Questionnaire Stimulated, mean peak effect [5]: 15.6
Drug-Effect Questionnaire Talkative-Friendly, mean peak effect [5]: 10.2
Drug-Effect Questionnaire Willing to Pay For, mean peak effect [5]: 7.6
Drug-Effect Questionnaire Willing to Take Again, mean peak effect [5]: 10.2
Adjective Rating Scales Sedative, mean peak effect [6]: 3.7
Adjective Rating Scales Stimulant, mean peak effect [6]: 11.1
Drug-Effect Questionnaire Active-Alert-Energetic, mean peak effect [6]: 11.0
Drug-Effect Questionnaire Any Effect, mean peak effect [6]: 11.7
Drug-Effect Questionnaire Bad Effects, mean peak effect [6]: 2.2
Drug-Effect Questionnaire Euphoric, mean peak effect [6]: 5.7
Drug-Effect Questionnaire Good Effects, mean peak effect [6]: 10.2
Drug-Effect Questionnaire High, mean peak effect [6]: 12.8
Drug-Effect Questionnaire Irregular Heart Beat, mean peak effect [6]: 3.2
Drug-Effect Questionnaire Like Drug, mean peak effect [6]: 14.9
Drug-Effect Questionnaire Nausea-Queasy-Sick, mean peak effect [6]: 10.6
Drug-Effect Questionnaire Nervous-Anxious, mean peak effect [6]: 6.6
Drug-Effect Questionnaire Performance Impaired, mean peak effect [6]: 5.5
Drug-Effect Questionnaire Performance Improved, mean peak effect [6]: 4.0
Drug-Effect Questionnaire Restless, mean peak effect [6]: 0.2
Drug-Effect Questionnaire Rush, mean peak effect [6]: 12.4
Drug-Effect Questionnaire Shaky-Jittery, mean peak effect [6]: 3.1
Drug-Effect Questionnaire Sluggish-Fatigued-Lazy, mean peak effect [6]: 1.1
Drug-Effect Questionnaire Stimulated, mean peak effect [6]: 10.5
Drug-Effect Questionnaire Talkative-Friendly, mean peak effect [6]: 11.2
Drug-Effect Questionnaire Willing to Pay For, mean peak effect [6]: 11.7
Drug-Effect Questionnaire Willing to Take Again, mean peak effect [6]: 11.6
